Values joined by “and” are separate entries in the source; they are usually repeats but may differ in a detail not shown here. Identical values can stand only once.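 Assay format: 96-well plates, 48-hour exposure. GI50 = concentration required for 50% inhibition of growth.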 Active and inactive are the calls of the source. Rule as the data show it: active = GI50 up to about 1.1 µM and inactive = higher.
Legend:
Test in all cases: NCI tumour cell line growth inhibition, 48 h
SW-620 = tested on: SW-620
OVCAR-3 = tested on: OVCAR-3
SNB-19 = tested on: SNB-19
RPMI-8226 = tested on: RPMI-8226
UACC-257 = tested on: UACC-257
SF-268 = tested on: SF-268
IGROV-1 = tested on: IGROV-1
HOP-62 = tested on: HOP-62
LOX IMVI = tested on: LOX IMVI
HCT-116 = tested on: HCT-116
Malme-3M = tested on: Malme-3M
SK-OV-3 = tested on: SK-OV-3
U-251 = tested on: U-251
SN12C = tested on: SN12C
HOP-92 = tested on: HOP-92
HT-29 = tested on: HT-29
A498 = tested on: A498
HCT-15 = tested on: HCT-15
T47D = tested on: T47D
NCI-H460 = tested on: NCI-H460
SF-295 = tested on: SF-295
MDA-N = tested on: MDA-N
COLO 205 = tested on: COLO 205
NCI-H522 = tested on: NCI-H522
CCRF-CEM = tested on: CCRF-CEM
BT-549 = tested on: BT-549
OVCAR-4 = tested on: OVCAR-4
HL-60 = tested on: HL-60
UACC-62 = tested on: UACC-62
SNB-75 = tested on: SNB-75
CAKI-1 = tested on: CAKI-1
Hs-578T = tested on: Hs-578T
786-0 = tested on: 786-0
UO-31 = tested on: UO-31
SR = tested on: SR
DU-145 = tested on: DU-145
M14 = tested on: M14
SK-MEL-5 = tested on: SK-MEL-5
ACHN = tested on: ACHN
RXF 393 = tested on: RXF 393
NCI-H226 = tested on: NCI-H226
K562 = tested on: K562
MOLT-4 = tested on: MOLT-4
NCI-H23 = tested on: NCI-H23
OVCAR-5 = tested on: OVCAR-5
SF-539 = tested on: SF-539
SK-MEL-28 = tested on: SK-MEL-28
PC-3 = tested on: PC-3
EKVX = tested on: EKVX
MCF7 = tested on: MCF7
SK-MEL-2 = tested on: SK-MEL-2
TK-10 = tested on: TK-10
HCC 2998 = tested on: HCC 2998
OVCAR-8 = tested on: OVCAR-8
NCI/ADR-RES = tested on: NCI/ADR-RES
KM12 = tested on: KM12
MDA-MB-435 = tested on: MDA-MB-435
A549 = tested on: A549
MDA-MB-231 = tested on: MDA-MB-231

CC1OC(OC2C(OC(=O)[C@]34CCC(C)(C)C[C@H]3C3=CC[C@@H]5[C@@]6(C)CC[C@H](OC7OC(C(=O)O)C(O)C(O)C7O)C(C)(C)[C@@H]6CC[C@@]5(C)[C@]3(C)C[C@H]4O)OCC(O)C2O)C(O)C(O)C1OC1OCC(O)C(O)C1O (some centres not stated)
GI50 (SW-620): 13 µM (inactive) and 16.3 µM (inactive)
GI50 (OVCAR-3): 15.3 µM (inactive) and 17.7 µM (inactive)
GI50 (SNB-19): 12.6 µM (inactive) and 8.09 µM (inactive)
GI50 (RPMI-8226): 12.1 µM (inactive) and 16.8 µM (inactive)
GI50 (UACC-257): 16.8 µM (inactive) and 16.4 µM (inactive)
GI50 (SF-268): 11.6 µM (inactive) and 19.3 µM (inactive)
GI50 (IGROV-1): 15.2 µM (inactive) and 13 µM (inactive)
GI50 (HOP-62): 17.7 µM (inactive) and 14.4 µM (inactive)
GI50 (LOX IMVI): 15.5 µM (inactive) and 10.7 µM (inactive)
GI50 (HCT-116): 14.1 µM (inactive) and 9.89 µM (inactive)
GI50 (Malme-3M): 14.2 µM (inactive) and 12 µM (inactive)
GI50 (SK-OV-3): 16.8 µM (inactive) and 18.9 µM (inactive)
GI50 (U-251): 10.4 µM (inactive) and 15.3 µM (inactive)
GI50 (SN12C): 2.38 µM (inactive) and 4.59 µM (inactive)
GI50 (HOP-92): 13.8 µM (inactive) and 11.2 µM (inactive)
GI50 (HT-29): 7.62 µM (inactive) and 5.18 µM (inactive)
GI50 (A498): 2.54 µM (inactive) and 1.72 µM (inactive)
GI50 (HCT-15): 17.1 µM and 17.3 µM
GI50 (T47D): 22.2 µM (inactive) and 11.3 µM (inactive)
GI50 (NCI-H460): 22 µM (inactive) and 17 µM (inactive)
GI50 (SF-295): 10.1 µM (inactive) and 15.5 µM (inactive)
GI50 (MDA-N): 10.6 µM (inactive) and 13.8 µM (inactive)
GI50 (COLO 205): 3.64 µM (inactive) and 2.32 µM (inactive)
GI50 (NCI-H522): 10.2 µM (inactive) and 6.21 µM (inactive)
GI50 (CCRF-CEM): 17.5 µM (inactive) and 19.9 µM (inactive)
GI50 (BT-549): 12.2 µM (inactive) and 13.5 µM (inactive)
GI50 (OVCAR-4): 17.8 µM (inactive)
GI50 (HL-60): 8.93 µM (inactive)
GI50 (UACC-62): 18.5 µM (inactive) and 16 µM (inactive)
GI50 (SNB-75): 15.9 µM (inactive) and 16.9 µM (inactive)
GI50 (CAKI-1): 12.7 µM (inactive) and 7.74 µM (inactive)
GI50 (Hs-578T): 19.8 µM (inactive) and 21.3 µM (inactive)
GI50 (786-0): 14.8 µM (inactive) and 12.6 µM (inactive)
GI50 (UO-31): 7.29 µM (inactive) and 11.6 µM (inactive)
GI50 (SR): 7.55 µM (inactive) and 6.01 µM (inactive)
GI50 (DU-145): 15.3 µM (inactive) and 13.9 µM (inactive)
GI50 (M14): 13.7 µM (inactive) and 8.59 µM (inactive)
GI50 (SK-MEL-5): 16.8 µM (inactive) and 18.9 µM (inactive)
GI50 (ACHN): 9.35 µM (inactive)
GI50 (RXF 393): 15.7 µM (inactive) and 18.5 µM (inactive)
GI50 (NCI-H226): 4.57 µM (inactive) and 7.19 µM (inactive)
GI50 (K562): 16.4 µM (inactive) and 14.6 µM (inactive)
GI50 (MOLT-4): 16 µM (inactive) and 27 µM (inactive)
GI50 (NCI-H23): 5.31 µM (inactive) and 6.5 µM (inactive)
GI50 (OVCAR-5): 10.5 µM (inactive) and 14.9 µM (inactive)

O=c1[nH]nc(-c2ccc([N+](=O)[O-])cc2)[nH]1
GI50 (SW-620): > 100 µM (inactive)
GI50 (OVCAR-3): > 100 µM (inactive)
GI50 (SNB-19): > 100 µM (inactive)
GI50 (RPMI-8226): > 100 µM (inactive)
GI50 (UACC-257): > 100 µM (inactive)
GI50 (SF-268): > 100 µM (inactive)
GI50 (SF-539): > 100 µM (inactive)
GI50 (IGROV-1): > 100 µM (inactive)
GI50 (HOP-62): > 100 µM (inactive)
GI50 (LOX IMVI): > 100 µM (inactive)
GI50 (HCT-116): > 100 µM (inactive)
GI50 (SK-MEL-28): > 100 µM (inactive)
GI50 (Malme-3M): > 100 µM (inactive)
GI50 (PC-3): > 100 µM (inactive)
GI50 (EKVX): 45.4 µM (inactive)
GI50 (U-251): > 100 µM (inactive)
GI50 (MCF7): > 100 µM (inactive)
GI50 (SK-MEL-2): > 100 µM (inactive)
GI50 (TK-10): > 100 µM (inactive)
GI50 (SN12C): > 100 µM (inactive)
GI50 (HOP-92): > 100 µM (inactive)
GI50 (HCC 2998): > 100 µM (inactive)
GI50 (HT-29): > 100 µM (inactive)
GI50 (OVCAR-8): > 100 µM (inactive)
GI50 (A498): > 100 µM (inactive)
GI50 (HCT-15): > 100 µM
GI50 (T47D): > 100 µM (inactive)
GI50 (NCI-H460): > 100 µM (inactive)
GI50 (SF-295): > 100 µM (inactive)
GI50 (MDA-N): > 100 µM (inactive)
GI50 (COLO 205): > 100 µM (inactive)
GI50 (NCI-H522): > 100 µM (inactive)
GI50 (CCRF-CEM): > 100 µM (inactive)
GI50 (BT-549): 19.1 µM (inactive)
GI50 (OVCAR-4): > 100 µM (inactive)
GI50 (HL-60): > 100 µM (inactive)
GI50 (UACC-62): > 100 µM (inactive)
GI50 (SNB-75): > 100 µM (inactive)
GI50 (CAKI-1): > 100 µM (inactive)
GI50 (Hs-578T): > 100 µM (inactive)
GI50 (786-0): > 100 µM (inactive)
GI50 (NCI/ADR-RES): > 100 µM (inactive)
GI50 (UO-31): > 100 µM (inactive)
GI50 (SR): > 100 µM (inactive)
GI50 (DU-145): > 100 µM (inactive)
GI50 (M14): > 100 µM (inactive)
GI50 (KM12): > 100 µM (inactive)
GI50 (ACHN): > 100 µM (inactive)
GI50 (RXF 393): > 100 µM (inactive)
GI50 (NCI-H226): > 100 µM (inactive)
GI50 (K562): > 100 µM (inactive)
GI50 (MOLT-4): > 100 µM (inactive)
GI50 (MDA-MB-435): > 100 µM (inactive)
GI50 (NCI-H23): > 100 µM (inactive)
GI50 (A549): > 100 µM (inactive)
GI50 (OVCAR-5): > 100 µM (inactive)

CCc1n[nH]c(=O)n1CCCCCCCCCCCCn1c(CC)n[nH]c1=O
GI50 (SW-620): 37.2 µM (inactive)
GI50 (OVCAR-3): 37.8 µM (inactive)
GI50 (SNB-19): 39.7 µM (inactive)
GI50 (RPMI-8226): 18.6 µM (inactive)
GI50 (UACC-257): 11.7 µM (inactive)
GI50 (SF-268): 29.7 µM (inactive)
GI50 (SF-539): 48.4 µM (inactive)
GI50 (IGROV-1): 29.5 µM (inactive)
GI50 (HOP-62): 56.6 µM (inactive)
GI50 (LOX IMVI): 24.8 µM (inactive)
GI50 (HCT-116): 27 µM (inactive)
GI50 (Malme-3M): 25.9 µM (inactive)
GI50 (PC-3): 27.5 µM (inactive)
GI50 (EKVX): 32 µM (inactive)
GI50 (SK-OV-3): 62.4 µM (inactive)
GI50 (U-251): 22 µM (inactive)
GI50 (MCF7): 23.9 µM (inactive)
GI50 (SK-MEL-2): 52.8 µM (inactive)
GI50 (TK-10): 33 µM (inactive)
GI50 (SN12C): 59.8 µM (inactive)
GI50 (HOP-92): 37.1 µM (inactive)
GI50 (HCC 2998): 34.5 µM (inactive)
GI50 (HT-29): 32.7 µM (inactive)
GI50 (OVCAR-8): 24.7 µM (inactive)
GI50 (A498): 29.2 µM (inactive)
GI50 (HCT-15): 40.9 µM
GI50 (T47D): 18 µM (inactive)
GI50 (NCI-H460): 26.6 µM (inactive)
GI50 (SF-295): 25.1 µM (inactive)
GI50 (MDA-N): 32.1 µM (inactive)
GI50 (COLO 205): 24.2 µM (inactive)
GI50 (NCI-H522): 26.2 µM (inactive)
GI50 (CCRF-CEM): 18.7 µM (inactive)
GI50 (BT-549): 26.8 µM (inactive)
GI50 (OVCAR-4): 20.3 µM (inactive)
GI50 (UACC-62): 18.3 µM (inactive)
GI50 (SNB-75): 21 µM (inactive)
GI50 (CAKI-1): 27.7 µM (inactive)
GI50 (Hs-578T): 22 µM (inactive)
GI50 (786-0): 35.5 µM (inactive)
GI50 (NCI/ADR-RES): 28.6 µM (inactive)
GI50 (UO-31): 30.7 µM (inactive)
GI50 (SR): 19.2 µM (inactive)
GI50 (M14): 25.9 µM (inactive)
GI50 (KM12): 33.6 µM (inactive)
GI50 (SK-MEL-5): 16.1 µM (inactive)
GI50 (ACHN): 25.2 µM (inactive)
GI50 (MDA-MB-231): 28.1 µM (inactive)
GI50 (RXF 393): 37 µM (inactive)
GI50 (NCI-H226): 36.9 µM (inactive)
GI50 (K562): 17.9 µM (inactive)
GI50 (MOLT-4): 22.5 µM (inactive)
GI50 (MDA-MB-435): 23.1 µM (inactive)
GI50 (NCI-H23): 20.2 µM (inactive)
GI50 (A549): 27.9 µM (inactive)
GI50 (OVCAR-5): 47.1 µM (inactive)
